Test results taken from ChEMBL document CHEMBL1201862, “PubChem BioAssay data set” (2004).
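Method: 48-hour compound exposure of cells in 96-well plates, five concentrations, linear interpolation of endpoints. Abbreviation: GI50, concentration required for 50% inhibition of growth.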 The source made the active and inactive calls. Rule as the data show it: active = GI50 up to about 1.1 µM and inactive = higher.

Columns and labels:
Test in all cases: inhibition of tumour cell growth, NCI panel, 48 h
[1] = test system: TK-10
[2] = test system: HOP-62
[3] = test system: IGROV-1
[4] = test system: OVCAR-5
[5] = test system: SK-MEL-5
[6] = test system: SN12C
[7] = test system: LOX IMVI
[8] = test system: Malme-3M
[9] = test system: DU-145
[10] = test system: EKVX
[11] = test system: NCI/ADR-RES
[12] = test system: SNB-19
[13] = test system: CCRF-CEM
[14] = test system: A549
[15] = test system: HCT-116
[16] = test system: MDA-MB-435
[17] = test system: A498
[18] = test system: OVCAR-8
[19] = test system: ACHN
[20] = test system: K562
[21] = test system: UACC-257
[22] = test system: HT-29
[23] = test system: M14
[24] = test system: SK-MEL-2
[25] = test system: U-251
[26] = test system: NCI-H226
[27] = test system: UACC-62
[28] = test system: HCT-15
[29] = test system: HCC 2998
[30] = test system: SW-620
[31] = test system: SF-295
[32] = test system: KM12
[33] = test system: PC-3
[34] = test system: RXF 393
[35] = test system: UO-31
[36] = test system: MCF7
[37] = test system: MOLT-4
[38] = test system: HOP-92
[39] = test system: SF-268
[40] = test system: COLO 205
[41] = test system: RPMI-8226
[42] = test system: MDA-N
[43] = test system: SK-MEL-28
[44] = test system: NCI-H23
[45] = test system: Hs-578T
[46] = test system: NCI-H522
[47] = test system: NCI-H460
[48] = test system: CAKI-1
[49] = test system: BT-549
[50] = test system: 786-0
[51] = test system: SK-OV-3
[52] = test system: MDA-MB-231
[53] = test system: OVCAR-3
[54] = test system: OVCAR-4
[55] = test system: T47D
[56] = test system: SNB-75
[57] = test system: HL-60
[58] = test system: SF-539

CN1C/C(=C\c2cccs2)C(O)/C(=C/c2cccs2)C1 (stereo not given)
GI50 [1]: > 100 µM (inactive) | GI50 [2]: > 100 µM (inactive) | GI50 [3]: 53 µM (inactive) | GI50 [4]: > 100 µM (inactive) | GI50 [5]: > 100 µM (inactive) | GI50 [6]: 74.5 µM (inactive) | GI50 [7]: > 100 µM (inactive) | GI50 [8]: 50.1 µM (inactive) | GI50 [9]: > 100 µM (inactive) | GI50 [10]: > 100 µM (inactive) | GI50 [11]: > 100 µM (inactive) | GI50 [12]: > 100 µM (inactive) | GI50 [13]: 27 µM (inactive) | GI50 [14]: > 100 µM (inactive) | GI50 [15]: 72.4 µM (inactive) | GI50 [16]: > 100 µM (inactive) | GI50 [17]: > 100 µM (inactive) | GI50 [18]: > 100 µM (inactive) | GI50 [19]: > 100 µM (inactive) | GI50 [20]: 57.8 µM (inactive) | GI50 [21]: 89.5 µM (inactive) | GI50 [22]: > 100 µM (inactive) | GI50 [23]: > 100 µM (inactive) | GI50 [24]: > 100 µM (inactive) | GI50 [25]: > 100 µM (inactive) | GI50 [26]: > 100 µM (inactive) | GI50 [27]: > 100 µM (inactive) | GI50 [28]: > 100 µM | GI50 [29]: 41.1 µM (inactive) | GI50 [30]: > 100 µM (inactive) | GI50 [31]: > 100 µM (inactive) | GI50 [32]: > 100 µM (inactive) | GI50 [33]: > 100 µM (inactive) | GI50 [34]: > 100 µM (inactive) | GI50 [35]: 97.3 µM (inactive) | GI50 [36]: 48.5 µM (inactive) | GI50 [37]: 25.2 µM (inactive) | GI50 [38]: 20.4 µM (inactive) | GI50 [39]: > 100 µM (inactive) | GI50 [40]: 87.1 µM (inactive) | GI50 [41]: 20.2 µM (inactive) | GI50 [42]: > 100 µM (inactive) | GI50 [43]: > 100 µM (inactive) | GI50 [44]: > 100 µM (inactive) | GI50 [45]: > 100 µM (inactive) | GI50 [46]: 35.1 µM (inactive) | GI50 [47]: > 100 µM (inactive) | GI50 [48]: 97.5 µM (inactive) | GI50 [49]: > 100 µM (inactive) | GI50 [50]: > 100 µM (inactive) | GI50 [51]: > 100 µM (inactive) | GI50 [52]: > 100 µM (inactive) | GI50 [53]: > 100 µM (inactive) | GI50 [54]: 35.5 µM (inactive) | GI50 [55]: 25.8 µM (inactive)

COc1ccc(C2CC(c3c(O)ccc4ccccc34)=NN2)cc1OC (stereo not given)
GI50 [1]: 3.91 µM (inactive) | GI50 [2]: 3.86 µM (inactive) | GI50 [3]: 4.43 µM (inactive) | GI50 [4]: 3.9 µM (inactive) | GI50 [5]: 2.82 µM (inactive) | GI50 [6]: 4.32 µM (inactive) | GI50 [8]: 4.02 µM (inactive) | GI50 [9]: 5.71 µM (inactive) | GI50 [10]: 6.01 µM (inactive) | GI50 [11]: 2.62 µM (inactive) | GI50 [12]: 2.1 µM (inactive) | GI50 [13]: 4.85 µM (inactive) | GI50 [16]: 2.96 µM (inactive) | GI50 [17]: 18.5 µM (inactive) | GI50 [18]: 2.98 µM (inactive) | GI50 [19]: 1.86 µM (inactive) | GI50 [20]: 4.38 µM (inactive) | GI50 [21]: 6.81 µM (inactive) | GI50 [22]: 1.89 µM (inactive) | GI50 [23]: 4.1 µM (inactive) | GI50 [24]: 6 µM (inactive) | GI50 [25]: 2.7 µM (inactive) | GI50 [26]: 2.54 µM (inactive) | GI50 [27]: 3.29 µM (inactive) | GI50 [28]: 4.45 µM | GI50 [29]: 2.22 µM (inactive) | GI50 [31]: 2.55 µM (inactive) | GI50 [32]: 3.52 µM (inactive) | GI50 [33]: 3.54 µM (inactive) | GI50 [34]: 7.6 µM (inactive) | GI50 [35]: 2.11 µM (inactive) | GI50 [36]: 6.37 µM (inactive) | GI50 [37]: 2.24 µM (inactive) | GI50 [38]: 3.7 µM (inactive) | GI50 [56]: 1.22 µM (inactive) | GI50 [39]: 2.87 µM (inactive) | GI50 [40]: 6.12 µM (inactive) | GI50 [41]: 8 µM (inactive) | GI50 [42]: 3.95 µM (inactive) | GI50 [43]: 5.16 µM (inactive) | GI50 [44]: 3.22 µM (inactive) | GI50 [57]: 4.42 µM (inactive) | GI50 [45]: 2.16 µM (inactive) | GI50 [46]: 1.82 µM (inactive) | GI50 [47]: 2.92 µM (inactive) | GI50 [58]: 4.27 µM (inactive) | GI50 [48]: 4.9 µM (inactive) | GI50 [49]: 3.92 µM (inactive) | GI50 [51]: 7.94 µM (inactive) | GI50 [52]: 9.79 µM (inactive) | GI50 [53]: 4.46 µM (inactive) | GI50 [54]: 6.03 µM (inactive) | GI50 [55]: 4.04 µM (inactive)

Cc1nn(C2OC(CO)C(O)C(F)C2O)c(=O)[nH]c1=O (stereo not given)
GI50 [1]: > 100 µM (inactive) | GI50 [4]: > 100 µM (inactive) | GI50 [5]: > 100 µM (inactive) | GI50 [6]: > 100 µM (inactive) | GI50 [7]: > 100 µM (inactive) | GI50 [8]: > 100 µM (inactive) | GI50 [9]: > 100 µM (inactive) | GI50 [11]: > 100 µM (inactive) | GI50 [12]: > 100 µM (inactive) | GI50 [13]: > 100 µM (inactive) | GI50 [14]: > 100 µM (inactive) | GI50 [15]: > 100 µM (inactive) | GI50 [16]: > 100 µM (inactive) | GI50 [17]: > 100 µM (inactive) | GI50 [18]: > 100 µM (inactive) | GI50 [19]: > 100 µM (inactive) | GI50 [20]: > 100 µM (inactive) | GI50 [21]: > 100 µM (inactive) | GI50 [22]: > 100 µM (inactive) | GI50 [23]: > 100 µM (inactive) | GI50 [24]: > 100 µM (inactive) | GI50 [25]: > 100 µM (inactive) | GI50 [26]: > 100 µM (inactive) | GI50 [27]: > 100 µM (inactive) | GI50 [28]: > 100 µM | GI50 [29]: > 100 µM (inactive) | GI50 [30]: > 100 µM (inactive) | GI50 [31]: > 100 µM (inactive) | GI50 [33]: > 100 µM (inactive) | GI50 [35]: > 100 µM (inactive) | GI50 [36]: > 100 µM (inactive) | GI50 [37]: 0.504 µM (active) | GI50 [38]: > 100 µM (inactive) | GI50 [39]: > 100 µM (inactive) | GI50 [40]: > 100 µM (inactive) | GI50 [41]: > 100 µM (inactive) | GI50 [42]: > 100 µM (inactive) | GI50 [43]: > 100 µM (inactive) | GI50 [44]: > 100 µM (inactive) | GI50 [57]: > 100 µM (inactive) | GI50 [45]: > 100 µM (inactive) | GI50 [46]: > 100 µM (inactive) | GI50 [47]: > 100 µM (inactive) | GI50 [58]: > 100 µM (inactive) | GI50 [48]: > 100 µM (inactive) | GI50 [49]: > 100 µM (inactive) | GI50 [50]: > 100 µM (inactive) | GI50 [51]: > 100 µM (inactive) | GI50 [52]: > 100 µM (inactive) | GI50 [53]: > 100 µM (inactive) | GI50 [54]: > 100 µM (inactive) | GI50 [55]: > 100 µM (inactive)
